Test results as given in ChEMBL document CHEMBL4673365, “Design, synthesis and biological evaluation of novel 4-(pyrrolo[2,3-d]pyrimidine-4-yloxy)benzamide derivatives as potential antitumor agents” (Bioorg Med Chem Lett, 2021).

Legend:
A549 [1] = assay: Cytotoxicity against human A549 cells after 72 hrs by MTT assay; type: functional, cell-based
MCF7 = assay: Cytotoxicity against human MCF7 cells after 72 hrs by MTT assay; type: functional, cell-based
HeLa = assay: Cytotoxicity against human HeLa cells after 72 hrs by MTT assay; type: functional, cell-based
[2] = biological target: Hepatocyte growth factor receptor (Homo sapiens, UniProt P08581); assay: Inhibition of c-Met (unknown origin) by mobility shift assay
A549 [3] = assay: Induction of cell cycle arrest in human A549 cells assessed as accumulation at G2 phase at 5 uM incubated for 24 hrs by propidium iodide staining based flow cytometry (reference value: 7.56 %); type: functional
A549 [4] = assay: Cytotoxicity against human A549 cells assessed as inhibition rate at 1.234 uM after 72 hrs by MTT assay relative to control; type: functional
A549 [5] = assay: Cytotoxicity against human A549 cells assessed as inhibition rate at 3.704 uM after 72 hrs by MTT assay relative to control; type: functional
A549 [6] = assay: Cytotoxicity against human A549 cells assessed as inhibition rate at 33.33 uM after 72 hrs by MTT assay relative to control; type: functional
A549 [7] = assay: Cytotoxicity against human A549 cells assessed as inhibition rate at 100 uM after 72 hrs by MTT assay relative to control; type: functional
A549 [8] = assay: Induction of cell cycle arrest in human A549 cells assessed as accumulation at G0/G1 phase at 5 uM incubated for 24 hrs by propidium iodide staining based flow cytometry (reference value: 64.47 %); type: functional
A549 [9] = assay: Cytotoxicity against human A549 cells assessed as inhibition rate at 11.11 uM after 72 hrs by MTT assay relative to control; type: functional
A549 [10] = assay: Induction of cell cycle arrest in human A549 cells assessed as accumulation at S phase at 5 uM incubated for 24 hrs by propidium iodide staining based flow cytometry (reference value: 27.97 %); type: functional
A549 [11] = assay: Cytotoxicity against human A549 cells assessed as inhibition rate at 0.411 uM after 72 hrs by MTT assay relative to control; type: functional
A549 [12] = assay: Cytotoxicity against human A549 cells assessed as inhibition rate at 0.137 uM after 72 hrs by MTT assay relative to control; type: functional
A549 [13] = assay: Cytotoxicity against human A549 cells assessed as reduction in cell survival after 72 hrs by MTT assay; type: functional, cell-based; conditions: dose 0.137-100 µM
[14] = Homo sapiens, A549, 72 h, read-out: IC50
[15] = Homo sapiens, MCF7, 72 h, read-out: IC50

Sequence of Hepatocyte growth factor receptor (P08581 whole entry): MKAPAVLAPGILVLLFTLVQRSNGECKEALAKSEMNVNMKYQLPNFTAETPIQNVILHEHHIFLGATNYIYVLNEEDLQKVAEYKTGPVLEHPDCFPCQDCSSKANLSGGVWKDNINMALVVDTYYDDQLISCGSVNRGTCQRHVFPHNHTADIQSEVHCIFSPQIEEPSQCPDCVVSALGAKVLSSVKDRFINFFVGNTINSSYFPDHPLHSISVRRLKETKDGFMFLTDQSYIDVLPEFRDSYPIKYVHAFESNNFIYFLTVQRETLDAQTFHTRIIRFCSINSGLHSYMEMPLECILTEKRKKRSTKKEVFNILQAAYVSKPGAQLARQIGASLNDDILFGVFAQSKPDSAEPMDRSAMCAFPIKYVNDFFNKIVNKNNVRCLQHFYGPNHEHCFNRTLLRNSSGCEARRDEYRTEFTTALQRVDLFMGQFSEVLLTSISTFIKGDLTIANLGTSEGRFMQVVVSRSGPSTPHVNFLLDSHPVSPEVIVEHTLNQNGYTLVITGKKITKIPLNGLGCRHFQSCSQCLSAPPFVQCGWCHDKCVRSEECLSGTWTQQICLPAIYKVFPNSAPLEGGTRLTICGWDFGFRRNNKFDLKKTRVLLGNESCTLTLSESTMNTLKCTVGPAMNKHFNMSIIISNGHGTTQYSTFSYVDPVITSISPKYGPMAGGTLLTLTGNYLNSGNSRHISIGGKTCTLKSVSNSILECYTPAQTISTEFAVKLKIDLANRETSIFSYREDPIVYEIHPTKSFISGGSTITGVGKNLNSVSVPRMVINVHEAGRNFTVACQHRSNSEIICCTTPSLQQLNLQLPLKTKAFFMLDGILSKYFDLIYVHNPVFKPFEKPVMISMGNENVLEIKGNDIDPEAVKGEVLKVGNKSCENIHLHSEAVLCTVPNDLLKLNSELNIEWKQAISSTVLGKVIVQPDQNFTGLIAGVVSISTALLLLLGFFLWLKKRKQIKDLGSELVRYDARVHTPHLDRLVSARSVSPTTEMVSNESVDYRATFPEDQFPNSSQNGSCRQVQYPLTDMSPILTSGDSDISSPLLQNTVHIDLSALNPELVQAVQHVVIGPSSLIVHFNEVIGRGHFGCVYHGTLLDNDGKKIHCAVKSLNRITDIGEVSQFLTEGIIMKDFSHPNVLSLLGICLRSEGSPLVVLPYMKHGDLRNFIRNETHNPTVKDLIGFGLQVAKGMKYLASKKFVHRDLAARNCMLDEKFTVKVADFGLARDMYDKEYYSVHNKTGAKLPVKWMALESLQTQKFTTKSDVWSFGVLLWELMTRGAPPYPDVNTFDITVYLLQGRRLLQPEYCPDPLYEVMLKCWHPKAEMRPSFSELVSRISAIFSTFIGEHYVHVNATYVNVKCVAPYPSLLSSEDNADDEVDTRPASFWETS

Compound	IC50 (A549 [1]; [14])	IC50 (HeLa)	IC50 (MCF7; [15])	also measured
Cn1ccc2c(Oc3ccc(NC(=O)c4cc5cccnc5n(-c5ccc(C(F)(F)F)c(Cl)c5)c4=O)cc3F)ncnc21	320 µM	156 µM	–	IC50 (MCF7; mcf7): Not Active
O=C(Nc1ccc(Oc2ncnc3[nH]ccc23)c(F)c1)c1cc2cccnc2n(-c2ccccc2)c1=O	45.5 µM	36.9 µM	45 µM	–
COc1ccc(-n2c(=O)c(C(=O)Nc3ccc(Oc4ncnc5c4ccn5C)cc3)cc3cccnc32)cc1	83.2 µM	65.8 µM	105 µM	–
Cn1ccc2c(Oc3ccc(NC(=O)c4cc5cccnc5n(-c5ccc(Cl)cc5)c4=O)cc3F)ncnc21	55.5 µM	43.9 µM	75 µM	IC50 [2]: 3790 nM
O=C(Nc1ccc(Oc2ncnc3[nH]ccc23)c(F)c1)c1cc2cccnc2n(-c2ccc(C(F)(F)F)cc2Cl)c1=O	283 µM	96.8 µM	214 µM	–
O=C(Nc1ccc(Oc2ncnc3[nH]ccc23)c(F)c1)c1cc2cccnc2n(-c2ccc(Br)cc2F)c1=O	218 µM	87.8 µM	102 µM	–
Cn1ccc2c(Oc3ccc(NC(=O)c4cc5cccnc5n(-c5ccc(F)cc5)c4=O)cc3F)ncnc21	7.32 µM	4.25 µM	11.9 µM	IC50 [2]: 701 nM
O=C(Nc1ccc(Oc2ncnc3[nH]ccc23)c(F)c1)c1cc2cccnc2n(-c2ccc(Cl)cc2)c1=O	35.5 µM	23.9 µM	45 µM	IC50 [2]: 1180 nM
Cn1ccc2c(Oc3ccc(NC(=O)c4cc5cccnc5n(-c5ccc(C(F)(F)F)cc5Cl)c4=O)cc3F)ncnc21	–	170 µM	–	IC50 (A549 [1]; a549): Not Active; IC50 (MCF7; mcf7): Not Active
Cn1ccc2c(Oc3ccc(NC(=O)c4cc5cccnc5n(-c5ccc(Br)cc5)c4=O)cc3F)ncnc21	42.2 µM	33.8 µM	59.4 µM	–
O=C(Nc1ccc(Oc2ncnc3[nH]ccc23)c(F)c1)c1cc2cccnc2n(-c2ccc(Br)cc2)c1=O	27.3 µM	19.9 µM	27 µM	–
Cn1ccc2c(Oc3ccc(NC(=O)c4cc5cccnc5n(-c5ccccc5)c4=O)cc3)ncnc21	66.2 µM	59.8 µM	88.4 µM	–
Cn1ccc2c(Oc3ccc(NC(=O)c4cc5cccnc5n(-c5ccc(C(F)(F)F)c(Cl)c5)c4=O)cc3)ncnc21	–	289 µM	–	IC50 (A549 [1]; a549): Not Active; IC50 (MCF7; mcf7): Not Active
Cn1ccc2c(Oc3ccc(NC(=O)c4cc5cccnc5n(-c5ccc(C(F)(F)F)cc5Cl)c4=O)cc3)ncnc21	364 µM	174 µM	–	IC50 (MCF7; mcf7): Not Active
Cn1ccc2c(Oc3ccc(NC(=O)c4cc5cccnc5n(-c5ccc(Cl)cc5)c4=O)cc3)ncnc21	75.5 µM	49.9 µM	95 µM	–
CN1CCN(C2CCN(C(=O)Nc3cc(Oc4ccc(NC(=O)C5(C(=O)Nc6ccc(F)cc6)CC5)c(F)c4)ccn3)CC2)CC1 [GOLVATINIB]	7.7 µM	4.23 µM	15.4 µM	Activity (A549 [3]): 6.53%; inhibition at 1.234 µM (A549 [4]): 21.4%; inhibition at 3.704 µM (A549 [5]): 35.3%; inhibition at 33.33 µM (A549 [6]): 76.5%; inhibition at 100 µM (A549 [7]): 85.1%; Activity (A549 [8]): 73.65%; inhibition at 11.11 µM (A549 [9]): 47.5%; Activity (A549 [10]): 19.82%; inhibition at 0.411 µM (A549 [11]): 17.2%; inhibition at 0.137 µM (A549 [12]): 13.7%
Cn1ccc2c(Oc3ccc(NC(=O)c4cc5cccnc5n(-c5ccc(Br)cc5)c4=O)cc3)ncnc21	52.2 µM	43.8 µM	79.4 µM	–
Cn1ccc2c(Oc3ccc(NC(=O)c4cc5cccnc5n(-c5ccccc5)c4=O)cc3F)ncnc21	63.2 µM	51.8 µM	73.4 µM	–
O=C(Nc1ccc(Oc2ncnc3[nH]ccc23)c(F)c1)c1cc2cccnc2n(-c2ccc(F)cc2)c1=O	5.29 µM	3.72 µM	9.23 µM	Activity (A549 [3]): 5.43%; inhibition at 1.234 µM (A549 [4]): 23.4%; inhibition at 3.704 µM (A549 [5]): 42.3%; inhibition at 33.33 µM (A549 [6]): 80.6%; inhibition at 100 µM (A549 [7]): 90.5%; Activity (A549 [13]): Dose-dependent effect; Activity (A549 [8]): 73.46%; IC50 [2]: 612 nM; inhibition at 11.11 µM (A549 [9]): 54.5%; Activity (A549 [10]): 21.11%; inhibition at 0.411 µM (A549 [11]): 18.1%; inhibition at 0.137 µM (A549 [12]): 12.7%
